Laboratory results reported in patent publication US5397787A, “Vinylene-azaindole derivatives” (Farmitalia Carlo Erba S.R.L., priority 1992, dated 1995).

Molecular target: p45 v-abl tyrosine kinase
Assay: Exogenous Substrate Kinase Assay: p45 v-abl kinase inhibition, (Val5)-Angiotensin II phosphorylation
Type: biochemical, Abelson murine leukemia virus
Details: (Val^5)-Angiotensin II 2 mM, ATP 50 μM, pH 8.0, 30° C., triplicate determinations
Method: The enzyme used in our test was the p45 v-abl tyrosine kinase which represents the catalytic domain of the Abelson tyrosine kinase (isolated from the Abelson murine leukemia virus). The p45 v-abl kinase was produced and isolated as described by Wang et al. in J. Biol. Chem. 260, 64 (1985) and by Ferguson et al. in J. Biol. Chem. 260, 3652 (1985) and in Biochem. J. 257, 321 (1989).
(Val^5)-Angiotensin II phosphorylation was performed by incubation with 40 ng of purified abl-kinase and (γ-^32 P)-ATP, in 50 μl of buffer containing Tris-HCl 25 mM, pH 8.0, MgCl2 10 mM and dithiothreitol 0.1 mM (kinase buffer). The reaction mixture was incubated for the indicated time at 30° C. and the reaction stopped by adding 50 μl of 5% trichloroacetic acid.
After a brief incubation on ice, tubes were centrifuged. The supernatants were spotted on phosphocellulose paper squares (Whatman P-81) and washed extensively in acetic acid. The radioactivity bound to dried phosphocellulose squares was measured in a liquid scintillation counter. IC50 values were calculated from triplicate determinations of each experimental point. Each inhibitor was tested at concentrations ranging from […] in the presence of fixed concentrations of peptide (2 mM) and ATP (50 μM).

Row | Compound | IC50 [nM]
1 | N#CC(=Cc1c[nH]c2ncccc12)C(N)=O [2-cyano-3-(7-azaindol-3-yl)acrylamide] | 4700
2 | O=C1Nc2ccccc2/C1=C/c1c[nH]c2ncccc12 [3-[(7-azaindol-3-yl)methylen]-2-oxindole, (Z)-3-[(7-azaindol-3-yl)methylen]-2-oxindole] | 50
